According to ChEMBL document CHEMBL3885881, “DrugMatrix”:

Species on record: Rattus norvegicus
Experiment: DrugMatrix - Regimen: Daily Repeat
Assay type: toxicity, organism-based, Sprague-Dawley
Set-up: regimen Daily Repeat, gender Male, age 6-8 weeks
Settings: in vivo, po, 0 mg/kg, route oral GAVAGE, dose level Control, vehicle .5 % CMC; for ABSOLUTE BASOPHIL / ABSOLUTE EOSINOPHIL / ABSOLUTE LYMPHOCYTE / ABSOLUTE MONOCYTE / ABSOLUTE SEGMENTED NEUTROPHIL / BASOPHIL / EOSINOPHIL / ERYTHROCYTE COUNT / HEMATOCRIT / HEMOGLOBIN / LEUKOCYTE COUNT / LYMPHOCYTE / MEAN CORPUSCULAR HEMOGLOBIN / MEAN CORPUSCULAR HEMOGLOBIN CONCENTRATION / MEAN CORPUSCULAR VOLUME / MONOCYTE / NEUTROPHIL / PLATELET COUNT: tissue Blood; for ALANINE AMINOTRANSFERASE / ALBUMIN / ALKALINE PHOSPHATASE / ASPARTATE AMINOTRANSFERASE / BLOOD UREA NITROGEN / CHLORIDE / CHOLESTEROL / CREATINE PHOSPHOKINASE / CREATININE / GLUCOSE / LACTATE DEHYDROGENASE / LIPASE / PHOSPHORUS / POTASSIUM / SODIUM / TOTAL BILIRUBIN / TOTAL PROTEIN / URIC ACID: tissue Plasma

O=c1cc(-c2ccccc2)oc2c1ccc1ccccc12 [ALPHA-NAPHTHOFLAVONE]
ABSOLUTE BASOPHIL (120 h, time 5 day): 92 cells/µL
ABSOLUTE EOSINOPHIL (120 h, time 5 day): 52 cells/µL
ABSOLUTE LYMPHOCYTE (120 h, time 5 day): 6560 cells/µL
ABSOLUTE MONOCYTE (120 h, time 5 day): 160 cells/µL
ABSOLUTE SEGMENTED NEUTROPHIL (120 h, time 5 day): 1130 cells/µL
BASOPHIL (120 h, time 5 day): 1.14%
EOSINOPHIL (120 h, time 5 day): 0.68%
ERYTHROCYTE COUNT (120 h, time 5 day): 7.51 x10E6/uL
HEMATOCRIT (120 h, time 5 day): 46.04%
HEMOGLOBIN (120 h, time 5 day): 15.62 G/DL
LEUKOCYTE COUNT (120 h, time 5 day): 8.03 x10E3/uL
LYMPHOCYTE (120 h, time 5 day): 81.54%
MEAN CORPUSCULAR HEMOGLOBIN (120 h, time 5 day): 20.84 pg
MEAN CORPUSCULAR HEMOGLOBIN CONCENTRATION (120 h, time 5 day): 33.94 G/DL
MEAN CORPUSCULAR VOLUME (120 h, time 5 day): 61.42 fL
MONOCYTE (120 h, time 5 day): 2%
NEUTROPHIL (120 h, time 5 day): 14.24%
PLATELET COUNT (120 h, time 5 day): 1427.2 x10E3/uL
ALANINE AMINOTRANSFERASE (120 h, time 5 day): 35.6 u/L
ALBUMIN (120 h, time 5 day): 3.64 G/DL
ALKALINE PHOSPHATASE (120 h, time 5 day): 233 u/L
ASPARTATE AMINOTRANSFERASE (120 h, time 5 day): 81 u/L
BLOOD UREA NITROGEN (120 h, time 5 day): 12 mg/dL
CHLORIDE (120 h, time 5 day): 109.4 MEQ/L
CHOLESTEROL (120 h, time 5 day): 47.6 mg/dL
CREATINE PHOSPHOKINASE (120 h, time 5 day): 183.2 u/L
CREATININE (120 h, time 5 day): 0.4 mg/dL
GLUCOSE (120 h, time 5 day): 134.6 mg/dL
LACTATE DEHYDROGENASE (120 h, time 5 day): 89.4 u/L
LIPASE (120 h, time 5 day): 17.2 u/L
PHOSPHORUS (120 h, time 5 day): 13.02 mg/dL
POTASSIUM (120 h, time 5 day): 7 MEQ/L
SODIUM (120 h, time 5 day): 149.6 MEQ/L
TOTAL BILIRUBIN (120 h, time 5 day): 0.18 mg/dL
TOTAL PROTEIN (120 h, time 5 day): 6.06 G/DL
URIC ACID (120 h, time 5 day): 1.04 mg/dL
ABSOLUTE BASOPHIL (2184 h, time 91 day): 130 cells/µL
ABSOLUTE EOSINOPHIL (2184 h, time 91 day): 70 cells/µL
ABSOLUTE LYMPHOCYTE (2184 h, time 91 day): 8670 cells/µL
ABSOLUTE MONOCYTE (2184 h, time 91 day): 160 cells/µL
ABSOLUTE SEGMENTED NEUTROPHIL (2184 h, time 91 day): 1530 cells/µL
BASOPHIL (2184 h, time 91 day): 1.13%
EOSINOPHIL (2184 h, time 91 day): 0.66%
ERYTHROCYTE COUNT (2184 h, time 91 day): 9.13 x10E6/uL
HEMATOCRIT (2184 h, time 91 day): 48.47%
HEMOGLOBIN (2184 h, time 91 day): 16.56 G/DL
LEUKOCYTE COUNT (2184 h, time 91 day): 10.5 x10E3/uL
LYMPHOCYTE (2184 h, time 91 day): 81.63%
MEAN CORPUSCULAR HEMOGLOBIN (2184 h, time 91 day): 18.16 pg
MEAN CORPUSCULAR HEMOGLOBIN CONCENTRATION (2184 h, time 91 day): 34.14 G/DL
MEAN CORPUSCULAR VOLUME (2184 h, time 91 day): 53.14 fL
MONOCYTE (2184 h, time 91 day): 1.53%
NEUTROPHIL (2184 h, time 91 day): 14.71%
PLATELET COUNT (2184 h, time 91 day): 1280.22 x10E3/uL
ALANINE AMINOTRANSFERASE (2184 h, time 91 day): 28.89 u/L
ALBUMIN (2184 h, time 91 day): 3.69 G/DL
ALKALINE PHOSPHATASE (2184 h, time 91 day): 101.11 u/L
ASPARTATE AMINOTRANSFERASE (2184 h, time 91 day): 70.67 u/L
BLOOD UREA NITROGEN (2184 h, time 91 day): 16.78 mg/dL
CHLORIDE (2184 h, time 91 day): 104.56 MEQ/L
CHOLESTEROL (2184 h, time 91 day): 58.78 mg/dL
CREATINE PHOSPHOKINASE (2184 h, time 91 day): 91.22 u/L
CREATININE (2184 h, time 91 day): 0.61 mg/dL
GLUCOSE (2184 h, time 91 day): 142.33 mg/dL
LACTATE DEHYDROGENASE (2184 h, time 91 day): 81.67 u/L
LIPASE (2184 h, time 91 day): 13 u/L
PHOSPHORUS (2184 h, time 91 day): 7.54 mg/dL
POTASSIUM (2184 h, time 91 day): 6.27 MEQ/L
SODIUM (2184 h, time 91 day): 149.89 MEQ/L
TOTAL BILIRUBIN (2184 h, time 91 day): 0.19 mg/dL
TOTAL PROTEIN (2184 h, time 91 day): 7.12 G/DL
URIC ACID (2184 h, time 91 day): 0.97 mg/dL
ABSOLUTE BASOPHIL ([…], time 28 day): 150 cells/µL
ABSOLUTE EOSINOPHIL ([…], time 28 day): 54 cells/µL
ABSOLUTE LYMPHOCYTE ([…], time 28 day): 8890 cells/µL
ABSOLUTE MONOCYTE ([…], time 28 day): 190 cells/µL
ABSOLUTE SEGMENTED NEUTROPHIL ([…], time 28 day): 2250 cells/µL
BASOPHIL ([…], time 28 day): 1.26%
EOSINOPHIL ([…], time 28 day): 0.46%
ERYTHROCYTE COUNT ([…], time 28 day): 8.34 x10E6/uL
HEMATOCRIT ([…], time 28 day): 48.66%
HEMOGLOBIN ([…], time 28 day): 16.04 G/DL
LEUKOCYTE COUNT ([…], time 28 day): 11.58 x10E3/uL
LYMPHOCYTE ([…], time 28 day): 76.74%
MEAN CORPUSCULAR HEMOGLOBIN ([…], time 28 day): 19.2 pg
MEAN CORPUSCULAR HEMOGLOBIN CONCENTRATION ([…], time 28 day): 32.92 G/DL
MEAN CORPUSCULAR VOLUME ([…], time 28 day): 58.32 fL
MONOCYTE ([…], time 28 day): 1.76%
NEUTROPHIL ([…], time 28 day): 19.44%
PLATELET COUNT ([…], time 28 day): 1282.6 x10E3/uL
ALANINE AMINOTRANSFERASE ([…], time 28 day): 27 u/L
ALBUMIN ([…], time 28 day): 3.68 G/DL
ALKALINE PHOSPHATASE ([…], time 28 day): 146.2 u/L
ASPARTATE AMINOTRANSFERASE ([…], time 28 day): 66.6 u/L
BLOOD UREA NITROGEN ([…], time 28 day): 12.4 mg/dL
CHLORIDE ([…], time 28 day): 104.6 MEQ/L
CHOLESTEROL ([…], time 28 day): 59.6 mg/dL
CREATINE PHOSPHOKINASE ([…], time 28 day): 121.8 u/L
CREATININE ([…], time 28 day): 0.6 mg/dL
GLUCOSE ([…], time 28 day): 143 mg/dL
LACTATE DEHYDROGENASE ([…], time 28 day): 87.8 u/L
LIPASE ([…], time 28 day): 17.4 u/L
PHOSPHORUS ([…], time 28 day): 8.68 mg/dL
POTASSIUM ([…], time 28 day): 6.02 MEQ/L
SODIUM ([…], time 28 day): 152.8 MEQ/L
TOTAL BILIRUBIN ([…], time 28 day): 0.26 mg/dL
TOTAL PROTEIN ([…], time 28 day): 6.92 G/DL
URIC ACID ([…], time 28 day): 0.52 mg/dL
